# Laboratory results from patent US20170304329A1 (THE UNIVERSITY OF KANSAS, priority 2014, published 2017).
# How the values were obtained:
# T24 bladder cancer cells = assay: Annexin V-FITC apoptosis labeling; assay type: cell-based, human; settings: 4 μM, up to 48 h
# Procedure: It was determined that CPX induces apoptosis. We next determined whether the compounds could induce cell death through the apoptotic pathway. For this we treated T24 bladder cancer cells with CPX (4 μM) and labeled the cells with FITC conjugated Annexin V to detect apoptotic cells. […] Cells were incubated with the indicated dose of compound for up to 48 h.
# 253JBV cells = assay: Cell proliferation, hexosaminidase assay; assay type: cell-based, human; settings: for IC50: 48 h
# Procedure: (§1) To determine the effect of CPX on bladder cancer cell proliferation in T24 (MIBC) and 253-JBV (NMIBC) cells, 5,000 cells per well were seeded on to 96-well plates and grown overnight. The cells were then treated with increasing doses of CPX in RPMI media containing 10% FBS. Analysis of cell proliferation after the treatment period was estimated by the hexosaminidase assay. Briefly, the medium was removed and hexosaminidase substrate solution in citrate buffer pH 5 (7.5 mM), p-nitrophenol-N-acetyl-beta-D-glucosaminidase (Sigma Aldrich) was added at 75 μL per well. The plate was incubated at 37° C. in 100% humidity for 30 minutes. The reaction was stopped with 112.5 μL of 50 mM glycine containing 5 mM of EDTA (pH 10.4). The absorbance was measured at 405 nm. Experiments were conducted at n=6, and then repeated at least three times. The data were analyzed as percent of control, where the control wells were treated with equivalent amounts of DMSO alone. For IC50 calculations, a plot between the drug concentration and hexosaminidase activity was generated and the data was fitted either linearly or exponentially. The best fit was used for further processing of data.
# (§2) We determined and compared the effect of CPX with CPX-POM and CPX-glucuronide in vitro by performing proliferation assay. To determine the effect of CPX, CPX-POM and CPX-glucuronide on bladder cancer cell proliferation in T24 (MIBC) and 253-JBV (NMIBC) cells, 5,000 cells per well were seeded on to 96-well plates and grown overnight. The cells were then treated with increasing doses of CPX, CPX-POM and CPX-glucuronide in RPMI media containing 10% FBS. Analysis of cell proliferation after the treatment period was estimated by the hexosaminidase assay. Briefly, the medium was removed and hexosaminidase substrate solution in citrate buffer pH 5 (7.5 mM), p-nitrophenol-N-acetyl-beta-D-glucosaminidase (Sigma Aldrich) was added at 75 μL per well. The plate was incubated at 37° C. in 100% humidity for 30 minutes. The reaction was stopped with 112.5 μL of 50 mM glycine containing 5 mM of EDTA (pH 10.4). The absorbance was measured at 405 nm.
# (§3) Experiments were conducted at n=6, and then repeated at least three times. The data were analyzed as percent of control, where the control wells were treated with equivalent amounts of DMSO alone. For IC50 so calculations, a plot between the drug concentration and hexosaminidase activity was generated and the data was fitted either linearly or exponentially.
# T24 cells [1] = assay: Cell proliferation, hexosaminidase assay; assay type: cell-based, human
# Procedure: as §1, §2, §3
# T24 cells [2] = assay: Flow cytometry-based cell cycle analysis; design: species or system human
# Procedure: Flow cytometry-based cell cycle analysis studies were conducted to determine the effect of ciclopirox (CPX) on cell cycle progression in T24 cells (data not shown). […] At 1×IC50 and 2×IC50 concentrations, CPX arrest cells at G0/G1 phase. Cells were treated with CPX and a flow cytometer based analysis was performed.
# T24 cells [3] = assay: Proliferation with predicted CPX urine concentration in 20% normal urine; assay type: cell-based, human; settings: 3 days treatment, 50 uM-1.5625 uM CPX in 20% normal urine, 72 h
# Procedure: We next determined the effect of CPX in normal urine on T24 and 253JBV cells upon everyday treatment for up to 72 h (3 days treatment). The idea behind this experiment is to see the effect of predicted concentration of CPX in human urine on bladder cancer cells as the patient's bladder will be exposed every day to the predicted concentration of CPX. Three sets of plates were used, one plate each for one day treatment, two days treatment and three days treatment of CPX (50-1.5625 uM). T24 and 253JBV cells were incubated with CPX in normal urine (20% normal urine in complete RPMI media). […] The effect of CPX was determined by hexosaminidase assay beyond the 12 hours of varying CPX concentration (25 h, 48 h, and 72 h). In two days treatment, the cells are exposed to 50 uM-1.5625 uM for two days and the effect was determined by hexosaminidase assay at 48 h and 72 h time points. In three days treatment, the cells are exposed to 50 uM-1.5625 uM for three days and the effect was determined by hexosaminidase assay at 72 h time point.
# T24 Cells were incubated with CPX in normal urine (20% normal urine in complete RPMI media). […] The effect of CPX was determined by hexosaminidase assay beyond the 12 hours of varying CPX concentration (25 h, 48 h, and 72 h). […]
compound,measurement,setting,value
"Cc1cc(C2CCCCC2)n(O)c(=O)c1 [CPX, 6-cyclohexyl-1-hydroxy-4-methylpyridin-2(1H)-one]",cell death (Annexin V-FITC labeled cells),T24 bladder cancer cells,significant increase in cell death
same,IC50,253JBV cells,3000 nM
same,IC50,253JBV cells; Homo sapiens,2000 nM
same,effect on cell proliferation,253JBV cells; up to 72 h,significant dose- and time-dependent decrease in cell proliferation
same,IC50,"T24 cells [1]; Homo sapiens, T-24, 48 h, 48 h",4000 nM
same,effect on cell proliferation,T24 cells [1]; up to 72 h,significant dose- and time-dependent decrease in cell proliferation
same,cell cycle progression,T24 cells [2],induces S-phase cell cycle arrest
same,maximum inhibition of proliferation,T24 cells [3],20%
